Test results: PubChem BioAssay AID504746 (National Center for Advancing Translational Sciences (NCATS), 2011)

Tested on: mouse liver microsomes + NADPH, LC-MS/MS % remaining
Test: Inhibitors of N370S glucocerebrosidase as a Potential Chaperone Treatment of Gaucher Disease: Metabolic Stability Profile with NADPH
Settings: at 5 µM; higher = more stable (active)
Description: Glucocerebrosidase (GC) catalyzes the hydrolysis of beta-glucocerebroside to glucose and ceramide in lysosomes. Mutations in the glucocerebrosidase gene result in Gaucher disease, an autosomal recessive lysosomal storage disorder. Many of the mutations encountered in patients with Gaucher disease are missense alterations that may cause misfolding, decreased stability and/or mistrafficking of this lysosomal protein. […] These inhibitors include iminosugar analogs and three non-iminosugar inhibitors identified from a previous HTS of 62,000 compounds with the wild type recombinant enzyme. After further testing a probe has been identified and was characterized though AMDE tests. Mouse liver microsomes are created through broken up endoplasmic reticulum from mouse liver. These liver microsomes contain many drug metabolizing enzymes, such as Cytochome P-450s and flavin-containing monooxygenases. […] NIH Chemical Genomics Center [NCGC] NIH Molecular Libraries Probe Production Centers Network [MLPCN] MLPCN Grant: MH086442-01 Assay Submitter (PI): Wei Zheng
5uM of compound is incubated with mouse liver microsome in the presence of NADPH; the reference compounds are verapamil and warfarin. Compounds are incubated and samples are analyzed with LC-MS/MS.

Structure (SMILES): S=C(NCCCc1cnc[nH]1)NCCCN(Cc1ccc(Cl)c(Cl)c1)c1ccc(Br)cn1
- percent remaining: 58%
